# Laboratory results reported in patent publication US12533408B2, “Treatment regimen for the treatment of autoimmune disorders” (Merck Patent GmbH, priority 2020, dated 2026).
# Values joined by “and” are separate entries in the source; they are usually repeats but may differ in a detail not shown here. Identical values can stand only once. “Also recorded” adds a separate entry of the source.
# Experiments:
# [1] = system: lymphocytes (ALC, CD19+ B, CD4+ T, CD8+ T); test: Post hoc analysis of ALC, lymphocyte subsets and lymphopenia by age (CLARITY, CLARITY Extension, ORACLE-MS, PREMIERE)
# Description: Assessments included incidence and severity of Grade ≥3 lymphopenia; severity of Grade ≥3 lymphopenia was defined based on the NCI CTCAE v3.0 toxicity grading system as ALC levels <500 cells/μL. The time to recover from Grade 3 lymphopenia to Grade ≤2 (ALC ≥500 cells/μL) and to Grade ≤1 (ALC ≥800 cells/μL) were also assessed. […] All assessments were performed for each baseline age group (≤50 years and >50 years).
# [2] = system: lymphocytes; test: Absolute lymphocyte count (ALC) in vaccinated MAGNIFY-MS patients; format: in vivo, human
# [3] = system: varicella zoster virus (VZV); format: in vivo; conditions: all time points examined, MAGNIFY patients
# [4] = system: Influenza strain Victoria (Colorado/B); test: Hemagglutination inhibition (HAI) antibody titer, Victoria (Colorado/B); format: in vivo, influenza B virus; conditions: 12 patients
# [5] = clinical; conditions: human, plasma, po, 10 mg
# [6] = system: IgG and IgM; test: Serum immunoglobulin levels (IgG, IgM) under cladribine tablets
# [7] = system: seasonal influenza; format: in vivo, influenza A and B
# [8] = system: COVID-19; test: COVID-19 course in CLARIFY-MS and MAGNIFY-MS patients (case reports); format: in vivo, human
# Excerpt: Disease course is reported for each of the 3 patients with respect to severity of symptoms, confirmatory status of COVID-19, hospitalisation requirement and recovery status.
# Further to the overall outcome for each of the 3 patients from the phase IV studies CLARIFY-MS and MAGNIFY-MS, data on file includes some detail regarding extent and nature of symptoms COVID-19 and concomitant diseases and medications (Table 15).
# Aside from COVID-19, no other adverse events or relevant concomitant diseases and medications are reported for Patient 3.
# [9] = TEAEs of viral and bacterial infections in patients with Grade ≥3 lymphopenia, by age; format: in vivo, human; conditions: for incidence of bronchitis / incidence of herpes zoster / incidence of pneumonia / incidence of respiratory tract infection: Grade ≥3 lymphopenia; for overall incidence of TEAEs of viral and bacterial infections: Weeks 0-96, Grade ≥3 lymphopenia
# Description: The definitions used for before, during, and after lymphopenia were: before (before the start date of the first lymphopenia Grade ≥3), during (on or after the start date of the first lymphopenia up and including to the last date of the last lymphopenia), and after (after the end date of the last lymphopenia). The incidence of TEAEs were summarized by Preferred Term (PT) and were coded according to the MedDRA dictionary Version 20.0. All analyses were performed using Statistical Analysis Software (SAS®), Version 9.4 or higher.
# [10] = human, in vivo
# [11] = system: lymphocytes (ALC, CD19+ B, CD4+ T, CD8+ T); conditions: second treatment year (Giovannoni et al., 2010); cited from earlier work
# [12] = system: Influenza strain Yamagata (Phuket/B); test: Hemagglutination inhibition (HAI) antibody titer, Yamagata (Phuket/B); format: in vivo, influenza B virus; conditions: 12 patients
# [13] = Patient Canada VZV-70056800222530003, month 0, 9.7 wk after Shingrix, before first Mavenclad dose
# [14] = Patient Canada VZV-70056800222530003, month 3, 23.0 wk after Shingrix, 13.3 wk after first Mavenclad dose
structure (smiles),measurement,setting,value
"Nc1nc(Cl)nc2c1ncn2[C@H]1C[C@H](O)[C@@H](CO)O1 [cladribine tablets, Cladribine]",Median (range) time to recovery from the first Grade ≥3 lymphopenia to Grade ≤1,[1]; Age >50,6.06 (range: 0.2-46.5) months
same,Median (range) time to recovery from the first Grade ≥3 lymphopenia to Grade ≤2,[1]; Age >50,1.54 (range: 0.2-29.9) months
same,mean (SD) number of episodes of recovery from Grade ≥3 lymphopenia to Grade ≤1 per patient,[1]; Age >50,1.3 (0.5)
same,Median (range) time to recovery from the first Grade ≥3 lymphopenia to Grade ≤1,[1]; Age ≤50,5.49 (range: 0.2-88.4) months
same,Median (range) time to recovery from the first Grade ≥3 lymphopenia to Grade ≤2,[1]; Age ≤50,1.18 (range: 0.2-22.3) months
same,mean (SD) number of episodes of recovery from Grade ≥3 lymphopenia to Grade ≤1 per patient,[1]; Age ≤50,1.2 (0.5)
same,ALC decrease from baseline,"[1]; Week 9, Age >50",52.4%
same,CD8+ T lymphocytes decrease from baseline,"[1]; Week 9, Age >50",43.4%
same,CD19+ B lymphocytes decrease from baseline,"[1]; Week 9, Age >50",93.8%
same,median (range) ALC at Year 1 nadir,"[1]; Week 9, Age >50",0.9 (0.3-2.5) ×10^9 cells/L
same,ALC decrease from baseline,"[1]; Week 9, Age ≤50",43.5%
same,CD19+ B lymphocytes decrease from baseline,"[1]; Week 9, Age ≤50",90.2%
same,median (range) ALC at Year 1 nadir,"[1]; Week 9, Age ≤50",1.05 (0.2-6.7) ×10^9 cells/L
same,CD4+ T lymphocytes decrease from baseline,"[1]; Week 60, Age ≤50",66.4%
same,CD4+ T lymphocytes decrease from baseline,"[1]; Week 72, Age >50",73.7%
same,CD8+ T lymphocytes decrease from baseline,"[1]; Week 72, Age ≤50",41.8%
same,incidence of Grade ≥3 lymphopenia,"[1]; Weeks 0-96, Age >50 (30/110)",27.2%
same,incidence of Grade ≥3 lymphopenia,"[1]; Weeks 0-96, Age ≤50 (205/813)",25.2%
same,Grade 4 lymphopenia episodes,[1]; Year 1,No Grade 4 lymphopenia episodes
same,"Grade ≥3 lymphopenia, patients","[1]; Year 2, Age >50",20.0%
same,"Grade ≥3 lymphopenia, patients","[1]; Year 2, Age ≤50",18.7%
same,"Grade 4 lymphopenia, patients","[1]; Year 2, aged >50 years (1 patient)",1.0%
same,"Grade 4 lymphopenia, patients","[1]; Year 2, aged ≤50 years (2 patients)",0.3%
same,ALC decrease from baseline,"[1]; Year 2 nadir, Age >50",58.2%
same,ALC decrease from baseline,"[1]; Year 2 nadir, Age ≤50",55.4%
same,recovery of ALC and lymphocyte subsets (CD19+ B and CD4+ T) to normal levels,[1]; after last dose in treatment year 2,30-43 weeks
same,"Grade ≥3 lymphopenia, patients","[1]; treatment Year 1, Age >50",10.0%
same,"Grade ≥3 lymphopenia, patients","[1]; treatment Year 1, Age ≤50",8.3%
same,absolute lymphocyte levels,"[2]; Patient 70056800222010002, month 14, 1 month after vaccination",700 cells/µL
same,absolute lymphocyte levels,"[2]; Patient 70056800227010005, Month 6",900 cells/µL
same,ALC,"[2]; Patient Australia VZV-70056800221260001, month 2, 21.0 wk after Zostavax, 11.1 wk after first Mavenclad dose",960 cells/μL
same,ALC,"[2]; Patient Canada VZV-70056800222530003, Scr, 1.1 wk after Shingrix, 8.6 wk before first Mavenclad dose","2,100 cells/μL"
same,ALC,"[2]; Patient Canada VZV-70056800222530003, month 2, 18.0 wk after Shingrix, 8.3 wk after first Mavenclad dose",800 cells/μL
same,ALC,"[2]; Patient Canada VZV-70056800222530003, month 12","1,110 cells/μL"
same,ALC,"[2]; Patient Finland VZV-70056800221620004, month 2, 14.3 wk after Zostavax, 7.9 wk after first Mavenclad dose",670 cells/μL
same,lymphocytes after first treatment course,[2]; Shingrix case,800 cells/µL
same,"post-vaccination antibody titer against VZV, protective titer",[3],≥ 100 IU/L
same,2-fold change,[4],17%
same,4-fold change,[4],8%
same,Post-vacc seroprotection,[4],92%
same,Pre-vacc seroprotection,[4],83%
same,bioavailability,[5],45.6%
same,IgG immunoglobulin levels vs baseline,"[6]; 1, 2, 3, 6 and 12 month",comparable to baseline
same,"IgG, change vs baseline",[6]; Month 3,+10%
same,"IgM, change vs baseline",[6]; Month 3,−5%
same,"IgG, change vs baseline",[6]; Month 6,+11%
same,"IgM, change vs baseline",[6]; Month 6,−13%
same,"IgG, change vs baseline",[6]; Month 12,+3%
same,"IgM, change vs baseline",[6]; Month 12,+21%
same,IgG levels,[6]; Patient 70056800222520001,not affected
same,IgG immunoglobulin levels,"[6]; Patient 70056800227010005, any timepoint after treatment",not affected
same,IgM,"[6]; Patient Australia VZV-70056800221260001, month 3, 24.6 wk after Zostavax, 14.7 wk after first Mavenclad dose",59 mg/dL
same,IgG,[6]; [13],"1,410 mg/dL"
same,IgM,[6]; [13],190 mg/dL
same,IgG,[6]; [14],"1,510 mg/dL"
same,IgM,[6]; [14],166 mg/dL
same,IgM levels,"[6]; month 12, still in the normal range",slightly decreased
same,immunoglobulin numbers after cladribine treatment,[6]; various time points,not decreased
same,proportion of previously seropositive patients (HAI≥40) with ≥2-fold increase against at least 1 strain,[7]; 8 patients,87.5%
same,proportion of previously seropositive patients (HAI≥40) with ≥4-fold increase against at least 1 strain,[7]; 8 patients,37.5%
same,"post-vaccination seroprotection, all Influenza strains",[7]; all vaccinated patients,92-100%
same,"rate of 2-fold change in AB titer, all strains",[7]; in vivo,17-67%
same,Lymphocyte counts,"[8]; BL (baseline), c1-c3 = Patient 1, 2 (CLARIFY-MS), 3 (MAGNIFY-MS)",1.48 G/L and 2.80 G/L and 2.39 G/L
same,Lymphocyte counts,"[8]; M14 (January 2020), Patient 1",0.49 G/L
same,Lymphocyte counts,"[8]; Uns v. (17 Mar. 2020), Patient 2",0.20 G/L
same,Adverse events,"[8]; c1-c3 = Patient 1, 2, 3",Asthmatic bronchitis and Tachycardia and None and Swollen glands and Angina pectoris and Poss. reaction of EBV -
same,COVID-19 severity,"[8]; c1-c3 = Patient 1, 2, 3","SAE, Severe,; also recorded: Mild, not serious (no"
same,TEAEs of viral and bacterial infections during the Year 1 Grade ≥3 lymphopenia episode,[9]; Age >50,30%
same,patients with TEAEs severe in intensity (pneumonia and bronchitis),[9]; Age >50 (1 patient),3.3%
same,patients with TEAEs mild to moderate in intensity,[9]; Age >50 (16 patients),53.3%
same,TEAEs of viral and bacterial infections during the Year 1 Grade ≥3 lymphopenia episode,[9]; Age ≤50,21.5%
same,patients with TEAEs mild to moderate in severity,[9]; Age ≤50 (103 patients),50.2%
same,incidence of bronchitis,[9]; Age >50,10%
same,incidence of herpes zoster,[9]; Age >50,13.3%
same,incidence of pneumonia,[9]; Age >50,6.7%
same,incidence of respiratory tract infection,[9]; Age >50,6.7%
same,incidence of bronchitis,[9]; Age ≤50,5.9%
same,incidence of herpes zoster,[9]; Age ≤50,3.4%
same,incidence of pneumonia,[9]; Age ≤50,1.0%
same,incidence of respiratory tract infection,[9]; Age ≤50,1.5%
same,overall incidence of TEAEs of viral and bacterial infections,[9]; Age >50 (17/30),56.7%
same,overall incidence of TEAEs of viral and bacterial infections,[9]; Age ≤50 (105/205),51.2%
same,herpes zoster incidence,[10],0.83 episodes per 100 PY
same,incidence rate of serious infections,[10],0.8 /100 PY
same,incidence rate of total infections,[10],24.9 events per 100 patient-years (PY)
same,median ALC,[11],above 800 cells/mL
same,2-fold change,[12],17%
same,4-fold change,[12],0%
same,Post-vacc seroprotection,[12],92%
same,Pre-vacc seroprotection,[12],75%
